The values that follow are results of earlier work, collected in paper PMC6597953, “Taking Advantage of the Selectivity of Histone Deacetylases and Phosphodiesterase Inhibitors to Design Better Therapeutic Strategies to Treat Alzheimer’s Disease” (Frontiers in Aging Neuroscience, 2019).

Holding throughout (assay type): biochemical
For one data set, the target named is T1, HDAC6 (Homo sapiens, UniProt Q9UBN7).
T1 sequence (Q9UBN7 1-1215): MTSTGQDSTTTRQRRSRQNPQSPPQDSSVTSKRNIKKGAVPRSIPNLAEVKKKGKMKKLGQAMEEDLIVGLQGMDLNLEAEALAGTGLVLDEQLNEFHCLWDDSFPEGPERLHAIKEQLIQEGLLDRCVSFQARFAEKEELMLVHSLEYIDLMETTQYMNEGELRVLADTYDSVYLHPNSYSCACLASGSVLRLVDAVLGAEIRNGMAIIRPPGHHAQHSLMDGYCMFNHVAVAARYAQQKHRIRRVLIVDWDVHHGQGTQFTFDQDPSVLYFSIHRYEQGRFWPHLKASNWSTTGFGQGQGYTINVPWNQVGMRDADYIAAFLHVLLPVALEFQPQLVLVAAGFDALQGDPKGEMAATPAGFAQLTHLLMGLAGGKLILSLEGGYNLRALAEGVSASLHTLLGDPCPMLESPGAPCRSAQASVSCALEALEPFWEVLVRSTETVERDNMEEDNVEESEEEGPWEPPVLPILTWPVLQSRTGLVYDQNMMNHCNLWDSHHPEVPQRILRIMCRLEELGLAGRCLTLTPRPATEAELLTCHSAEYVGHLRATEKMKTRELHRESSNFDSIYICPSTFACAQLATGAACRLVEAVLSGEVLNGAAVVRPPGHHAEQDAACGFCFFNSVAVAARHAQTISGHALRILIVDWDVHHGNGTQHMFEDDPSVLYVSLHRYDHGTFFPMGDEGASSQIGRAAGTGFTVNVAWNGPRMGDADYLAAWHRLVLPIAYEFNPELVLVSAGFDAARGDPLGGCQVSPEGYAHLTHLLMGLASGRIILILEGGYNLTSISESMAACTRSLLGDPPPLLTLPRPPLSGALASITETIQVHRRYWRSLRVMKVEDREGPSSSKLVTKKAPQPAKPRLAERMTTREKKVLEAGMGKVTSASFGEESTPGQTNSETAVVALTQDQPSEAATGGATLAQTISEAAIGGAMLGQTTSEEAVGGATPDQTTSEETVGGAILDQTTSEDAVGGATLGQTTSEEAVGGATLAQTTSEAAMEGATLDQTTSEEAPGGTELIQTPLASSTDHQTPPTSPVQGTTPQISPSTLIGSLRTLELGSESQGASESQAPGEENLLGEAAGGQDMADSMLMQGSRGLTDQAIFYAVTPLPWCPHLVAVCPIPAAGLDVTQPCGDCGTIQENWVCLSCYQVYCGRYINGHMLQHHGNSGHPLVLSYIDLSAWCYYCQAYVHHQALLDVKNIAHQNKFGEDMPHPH
Kind of data set: IC50 of HDAC6 inhibition (assay not described); supported by alpha-tubulin acetylation western blot in SH-SY5Y cells. (A western blot detects proteins with antibodies after separation by electrophoresis.)

A further data set addresses HDAC1 (Homo sapiens, UniProt Q13547). As to the kind of experiment: IC50 of HDAC1 inhibition (assay not described); AcH3K9 western blot in SH-SY5Y cells at […].
The target of another data set is HDAC2 (Homo sapiens, UniProt Q92769). Kind of data set: IC50 of HDAC2 inhibition (assay not described).
HDAC2, sequence (Q92769 whole entry): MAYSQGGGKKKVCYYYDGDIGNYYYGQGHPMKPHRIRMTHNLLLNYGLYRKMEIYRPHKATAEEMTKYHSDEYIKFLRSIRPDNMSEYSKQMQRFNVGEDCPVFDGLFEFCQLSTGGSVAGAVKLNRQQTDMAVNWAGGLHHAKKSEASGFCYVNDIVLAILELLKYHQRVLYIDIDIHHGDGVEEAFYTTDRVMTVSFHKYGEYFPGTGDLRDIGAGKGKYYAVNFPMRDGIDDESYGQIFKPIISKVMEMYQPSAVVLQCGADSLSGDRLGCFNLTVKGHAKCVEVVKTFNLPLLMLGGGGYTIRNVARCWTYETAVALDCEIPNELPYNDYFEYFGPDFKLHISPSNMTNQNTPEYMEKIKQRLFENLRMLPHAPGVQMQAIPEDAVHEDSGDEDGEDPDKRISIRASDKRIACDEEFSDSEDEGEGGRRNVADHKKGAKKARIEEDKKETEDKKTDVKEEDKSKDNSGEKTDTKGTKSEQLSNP
The next data set deals with T2, PDE9 (Homo sapiens, UniProt O76083).
T2 construct: gene PDE9A
T2 sequence (O76083 whole entry): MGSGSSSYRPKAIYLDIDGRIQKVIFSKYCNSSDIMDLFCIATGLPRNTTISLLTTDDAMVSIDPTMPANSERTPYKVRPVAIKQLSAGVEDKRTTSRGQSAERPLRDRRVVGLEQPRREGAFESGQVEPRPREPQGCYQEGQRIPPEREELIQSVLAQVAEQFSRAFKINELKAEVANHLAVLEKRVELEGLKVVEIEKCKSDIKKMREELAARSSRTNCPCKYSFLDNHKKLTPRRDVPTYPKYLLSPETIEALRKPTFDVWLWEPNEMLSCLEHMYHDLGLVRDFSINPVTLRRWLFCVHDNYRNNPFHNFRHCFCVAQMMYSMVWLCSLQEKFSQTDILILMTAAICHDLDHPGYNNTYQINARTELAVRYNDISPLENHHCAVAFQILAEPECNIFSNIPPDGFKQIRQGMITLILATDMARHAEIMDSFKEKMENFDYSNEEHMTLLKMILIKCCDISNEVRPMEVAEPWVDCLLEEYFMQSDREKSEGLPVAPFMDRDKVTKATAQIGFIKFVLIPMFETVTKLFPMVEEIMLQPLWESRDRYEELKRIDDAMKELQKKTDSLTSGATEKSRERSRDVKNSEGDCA
Kind of data set: IC50 of PDE9 inhibition (assay not described); supported by pCREB western blot in SH-SY5Y cells.

HDAC1, sequence (Q13547 whole entry): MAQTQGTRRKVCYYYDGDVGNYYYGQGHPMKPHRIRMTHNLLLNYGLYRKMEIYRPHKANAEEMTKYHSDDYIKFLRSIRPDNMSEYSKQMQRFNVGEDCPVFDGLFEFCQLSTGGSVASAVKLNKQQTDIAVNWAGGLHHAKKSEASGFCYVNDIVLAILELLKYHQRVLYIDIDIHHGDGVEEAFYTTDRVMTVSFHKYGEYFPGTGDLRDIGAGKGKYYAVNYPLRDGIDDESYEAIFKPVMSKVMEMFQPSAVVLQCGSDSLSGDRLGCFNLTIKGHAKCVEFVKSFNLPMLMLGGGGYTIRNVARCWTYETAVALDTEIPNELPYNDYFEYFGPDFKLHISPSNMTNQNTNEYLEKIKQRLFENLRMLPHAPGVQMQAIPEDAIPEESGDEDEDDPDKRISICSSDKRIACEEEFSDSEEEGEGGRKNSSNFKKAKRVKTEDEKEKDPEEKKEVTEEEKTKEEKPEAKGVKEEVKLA

For CM-695, the IC50 (usually the concentration needed to halve the response being measured) was 40 nM at HDAC6, 593 nM at HDAC1, 3530 nM at HDAC2 and 107 nM at PDE9.
